Literature values as cited in US12115373B2, “Methods for reducing the risk of strokes by pharmacotherapy to reduce the number and duration of atrial fibrillations” (Xyra, LLC, priority 2022, dated 2024).

Conditions: in 2016; reported by the Market Insider; cited from earlier work

In the case of O=C(NC[C@H]1CN(c2ccc(N3CCOCC3=O)cc2)C(=O)O1)c1ccc(Cl)s1 [Xarelto, rivaroxaban], the adverse events is given as “over 15,000”.
